Data as given in ChEMBL document CHEMBL3301472, “MMV Malaria Box HIV and cytotoxicity screening”.

Columns and labels:
Assay type in all cases: toxicity, cell-based
[1] = MMV: MTT Cytotoxicity Assay Day 7 pi of Assay #7 (compound washed out Day 1 pi), U87-CD4-CXCR4 cells, % cell death @ 5mM compound; settings: human, u87-cd4-cxcr4, 5000 µM
[2] = MMV: MTT Cytotoxicity Assay Day 3 pi, U87-CD4-CXCR4 cells, % cell death @ 5mM compound; settings: human, u87-cd4-cxcr4, 5000 µM
[3] = MMV: MTT Cytotoxicity Assay Day 7 pi of Assay #10 (NO washout), U87-CD4-CCR5 cells, % cell death @ 5mM compound; settings: human, u87-cd4-ccr5, 5000 µM
[4] = MMV: MTT Cytotoxicity Assay Day 7 pi of Assay #6 (compound washed out Day 1 pi), U87-CD4-CCR5 cells, % cell death @ 5mM compound; settings: human, u87-cd4-ccr5, 5000 µM
[5] = MMV: MTT Cytotoxicity Assay Day 7 pi of Assay #11 (NO washout), U87-CD4-CXCR4 cells, % cell death @ 5mM compound; settings: human, u87-cd4-cxcr4, 5000 µM
[6] = MMV: MTT Cytotoxicity Assay Day 3 pi, U87-CD4-CCR5 cells, % cell death @ 5mM compound; settings: human, u87-cd4-ccr5, 5000 µM

Compound	% Cell Death [1]	% Cell Death [2]	% Cell Death [3]	% Cell Death [4]	% Cell Death [5]	% Cell Death [6]
CCN1CCCC1CNc1[nH]cnc2c3cc(Cl)ccc3nc1-2 (stereo not given)	-7	23	40	26	14	45
C[n+]1c2ccccc2nc2ccc(NCCO)cc21	-30	11	49	29	16	-33
Cc1ccc(-c2cc3c(SCC(=O)Nc4cc(C(F)(F)F)ccc4Cl)nccn3n2)cc1	-26	35	24	12	2	18
CCN(CC)CCNc1ncnc2c1[nH]c1ccc(Cl)cc12	-31	30	5	1	-1	15
CCN(CC)CCNc1ccnc2cc(Cl)ccc12	-5	36	17	21	-13	4
Oc1ccccc1CN1CCC2(CCCN(Cc3ccccc3F)C2)C1 (stereo not given)	1	15	44	36	39	-2
COc1cccc(O)c1CN1CCC2(CCCN(Cc3ccc(F)cc3)C2)C1 (stereo not given)	21	-7	7	-1	6	-63
FC(F)(F)c1ccc(Nc2nnnc3ccccc23)cc1	-10	28	121	44	90	67
COc1ccc(CCN2CCC(CN(C)Cc3cnn(-c4ccccc4)c3)CC2)cc1	16	53	110	68	93	33
O=C(NC(c1ccccc1)c1ccc2cccnc2c1O)c1ccccc1 (stereo not given)	-26	12	122	43	39	-19
O=C(NC1CCCC1)c1ccc(N2CCC(NCc3cccc(C(F)(F)F)c3)CC2)cc1	7	35	-4	-1	6	4
CCOc1cc(Br)c(C(C)NC(=O)c2cccc(OC)c2)cc1OCC (stereo not given)	11	-7	28	13	-7	-32
CC(C)=CCN1CCC(C(=O)Nc2ccc(-c3nc4ccccc4[nH]3)cc2)CC1	4	22	11	6	-26	10
CCOc1cc(Cl)c(C(C)NC(=O)c2cccc(OC)c2)cc1OCC (stereo not given)	16	37	24	10	28	-1
COc1ccc(CNC2CCN(c3ccc(NC(=O)c4cccc(Cl)c4)cc3)CC2)cc1OC	-21	-2	11	28	-37	-8
FC(F)(F)c1cccc(CNC2CCN(CCc3ccccc3)CC2)c1	-15	31	-16	30	24	-16
O=C(Nc1ccc(Cl)cc1)N1CCN(c2ccc3nncn3n2)CC1	87	22	92	83	98	108
O=C(CSc1ccc2nnc(-c3cccc(F)c3)n2n1)Nc1ccc2c(c1)OCO2	48	54	94	63	100	82
CCCCNCC(O)(c1ccc(Cl)cc1)c1ccc(Cl)cc1	-18	29	11	23	27	16
Cc1ccc(CN2CCC(C(=O)Nc3ccc(-c4cc5ccccc5[nH]4)cc3)CC2)o1	20	20	65	31	22	33
O=C(Nc1ccc(Cl)cc1C(=O)Nc1ccncc1)c1ccc(Cl)cc1Cl	75	21	15	50	87	0
COc1ccc(C2N(C)c3ccccc3N2C)cc1	-14	-15	3	16	30	-7
O=C(Nc1ccccc1O)c1ccc(-c2ccc(Cl)cc2Cl)o1	66	-23	11	34	64	-37
O=C(Nc1ccc(F)c(Cl)c1)Nc1ccc(Cl)c(Cl)c1	-9	4	22	-6	-12	-19
CCOc1ccc(-c2nc(NC(=O)c3cccc(S(C)(=O)=O)c3)sc2C)cc1	-38	-6	2	0	29	5
COc1ccccc1N1CCN(C(CNS(=O)(=O)c2ccc(Cl)cc2)c2cccnc2)CC1 (stereo not given)	81	94	130	83	105	109
CCN(CC)CCCNc1nc(-c2ccc(Cl)cc2)nc2ccccc12	18	13	18	13	-10	-18
CN1c2ccccc2N(C)C1c1ccc2c(c1)OCO2	16	3	1	10	-2	-7
O=C(NCC1Cc2cccc(-c3ccncc3)c2O1)c1csc2c1CCCC2 (stereo not given)	-22	2	17	7	60	4
C=C(C)CCC(C)N1CCC(N2CCC(C(=O)NCCc3ccccc3)CC2)CC1 (stereo not given)	-27	3	11	23	-11	-11
